Source: ChEMBL document CHEMBL4602692, “Synthesis and Biological Evaluation of Tryptamines Found in Hallucinogenic Mushrooms: Norbaeocystin, Baeocystin, Norpsilocin, and Aeruginascin” (J Nat Prod, 2020)
pEC50: −log10 of the molar value. Activity calls are given as the source filed them. No cut-off for these calls is given here.

Legend:
[1] = target: 5-hydroxytryptamine receptor 2A (Mus musculus) (UniProt P35363); assay: Agonist activity at mouse 5-HT2A receptor expressed in Flp-In T-REx 293 cells assessed as induction of Gq-mediated calcium flux incubated for 1 hr by Flou4-AM dye based FLIPR assay relative to serotonin; format: functional, cell-based
5-hydroxytryptamine receptor 2A (Mus musculus), sequence (P35363 whole entry): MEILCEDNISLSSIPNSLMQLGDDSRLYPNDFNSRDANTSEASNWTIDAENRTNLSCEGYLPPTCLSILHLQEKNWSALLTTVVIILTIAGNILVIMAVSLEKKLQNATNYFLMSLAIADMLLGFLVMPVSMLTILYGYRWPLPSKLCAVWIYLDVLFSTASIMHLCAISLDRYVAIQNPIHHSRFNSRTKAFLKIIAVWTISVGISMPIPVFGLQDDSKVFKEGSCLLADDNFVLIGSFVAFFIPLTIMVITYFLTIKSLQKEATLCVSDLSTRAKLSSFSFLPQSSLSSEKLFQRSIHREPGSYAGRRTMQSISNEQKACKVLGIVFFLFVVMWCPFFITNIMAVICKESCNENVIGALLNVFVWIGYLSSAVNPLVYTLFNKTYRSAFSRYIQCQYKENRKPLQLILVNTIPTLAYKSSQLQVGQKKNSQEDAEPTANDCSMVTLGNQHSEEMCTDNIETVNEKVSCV

[2] = target: 5-hydroxytryptamine receptor 2A (Mus musculus, UniProt P35363); assay: Agonist activity at mouse 5-HT2A receptor expressed in Flp-In T-REx 293 cells assessed as induction of Gq-mediated calcium flux incubated for 1 hr by Flou4-AM dye based FLIPR assay; format: functional, cell-based
5-hydroxytryptamine receptor 2A, sequence (P35363 whole entry): as above

[3] = target: 5-hydroxytryptamine receptor 2A (Homo sapiens) (UniProt P28223); assay: Agonist activity at human 5-HT2A receptor expressed in Flp-In T-REx 293 cells assessed as induction of Gq-mediated calcium flux incubated for 1 hr by Flou4-AM dye based FLIPR assay relative to serotonin; format: functional, cell-based
5-hydroxytryptamine receptor 2A (Homo sapiens), sequence (P28223 whole entry): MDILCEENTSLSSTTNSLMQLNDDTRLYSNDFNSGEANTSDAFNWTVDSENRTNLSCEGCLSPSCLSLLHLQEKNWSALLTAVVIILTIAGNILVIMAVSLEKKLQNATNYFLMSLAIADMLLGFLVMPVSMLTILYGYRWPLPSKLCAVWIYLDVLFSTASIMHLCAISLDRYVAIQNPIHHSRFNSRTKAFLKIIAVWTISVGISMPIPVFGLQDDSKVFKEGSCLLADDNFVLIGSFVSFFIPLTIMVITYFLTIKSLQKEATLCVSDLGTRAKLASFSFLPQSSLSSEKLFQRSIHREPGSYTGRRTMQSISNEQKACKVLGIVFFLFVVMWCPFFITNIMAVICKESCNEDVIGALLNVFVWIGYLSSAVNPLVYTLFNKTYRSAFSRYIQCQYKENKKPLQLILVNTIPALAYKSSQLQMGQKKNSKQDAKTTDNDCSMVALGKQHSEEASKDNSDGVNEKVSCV

Mus musculus [4] = assay: Induction of head-twitch response in C57BL/6J mouse at 0.03 to 3 mg/kg, ip measured for 20 mins; format: functional, organism-based
Mus musculus [5] = assay: Induction of head-twitch response in ip dosed C57BL/6J mouse measured for 20 mins; format: functional

| Structure (SMILES) | Emax [1] [%] | pEC50 [2] | Emax [3] [%] | Activity (Mus musculus [4]) | Activity (Mus musculus [5]) | ED50 (Mus musculus [5]) [mg/kg] |
| --- | --- | --- | --- | --- | --- | --- |
| CNCCc1c[nH]c2cccc(O)c12 | 99 | 7.72 | 93 | – | – | – |
| CNCCc1c[nH]c2cccc(OP(=O)(O)O)c12 | – | – | – | inactive | – | – |
| CN(C)CCc1c[nH]c2cccc(O)c12 [PSILOCIN] | 72 | 8.00 | 73 | – | – | – |
| CN(C)CCc1c[nH]c2cccc(OP(=O)(O)O)c12 [PSILOCYBIN] | – | – | – | – | Dose-dependent effect | 0.4 |
